Laboratory results: US20090176837A1, “COMPOUNDS WITH ACTIVITY AT RETINOIC ACID RECEPTORS” (SONY CORPORATION, priority 2006, published 2009)

Legend:
[1] = molecular target: T1, RARβ2 (Homo sapiens, UniProt P10826); assay: Receptor Selection and Amplification Technology (R-SAT) functional receptor assay; format: cell-based; details: for pEC50: Table 1; for % Eff.: Table 1, efficacy relative to the maximal response of the reference ligand Am-580; for Emax: Table 1, efficacy relative to the maximal response of the reference ligand Am-580, read-out: % Eff.; for EC50: Table 1, read-out: pEC50 (converted)
T1 construct: expressed in transfected cells
T1 sequence (P10826 1-448 isoform P10826-2): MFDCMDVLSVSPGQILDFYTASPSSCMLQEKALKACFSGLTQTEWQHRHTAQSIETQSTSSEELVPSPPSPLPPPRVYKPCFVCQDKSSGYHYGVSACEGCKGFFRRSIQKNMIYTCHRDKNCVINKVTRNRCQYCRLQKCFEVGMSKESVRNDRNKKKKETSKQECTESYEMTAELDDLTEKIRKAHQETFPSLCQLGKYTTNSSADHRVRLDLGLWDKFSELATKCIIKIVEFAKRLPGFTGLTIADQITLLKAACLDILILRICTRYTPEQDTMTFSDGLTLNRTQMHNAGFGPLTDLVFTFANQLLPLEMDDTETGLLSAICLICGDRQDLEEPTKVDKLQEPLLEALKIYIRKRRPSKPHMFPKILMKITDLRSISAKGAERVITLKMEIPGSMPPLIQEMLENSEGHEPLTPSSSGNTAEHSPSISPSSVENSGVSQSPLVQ
Text: The functional receptor assay, Receptor Selection and Amplification Technology (R-SAT), was used to investigate the pharmacological properties of known and novel RARβ agonists and antagonists.
Efficacy is relative to the maximal response of the reference ligand, Am-580.

[2] = system: NTERA-2 Cells; assay: Induction of neuronal differentiation in NTERA-2 cells; format: cell-based

Emax [1]	EC50 [1]	Compound	pEC50 [1]	% Eff. [1]	neuronal differentiation [2]
		CCCCCCCCc1ccc(-c2ccc(C(=O)O)cc2)cc1 [Compound 6]	7.73	104%	induce neuronal differentiation
59%	309 nM	CCCCCCCCOc1ccc(-c2ccc(C(=O)NCCC#N)cc2)cc1 [Compound 51, 4′-Octyloxy-biphenyl-4-carboxylic acid (2-cyano-ethyl)-amide]			
39%	661 nM	CCCCCCCCOc1ccc(-c2ccc(C(=O)NCCc3ccccn3)cc2)cc1 [Compound 54, 4′-Octyloxy-biphenyl-4-carboxylic acid (2-pyridin-2-yl-ethyl)-amide]			
84%	676 nM	CCCCCCCCc1ccc(-c2ccc(C(=O)O)c(C)c2)cc1 [Compound 55, 3-Methyl-4′-octyl[1,1′-biphenyl]-4-carboxylic acid]			
105%	676 nM	Cc1sc(-c2ccc(C(=O)O)cc2)nc1OCC(=O)NC1CCCCCC1 [Compound 56, 4-(4-Cycloheptycarbamoylmethoxy-5-methyl-thiazol-2-yl)-benzoic acid]			
77%	676 nM	Cc1sc(-c2ccc(C(=O)O)cc2)nc1OCC(=O)NC(C)CCC(C)C (stereo not drawn) [Compound 57, 4-[4-[2-[(1,4-Dimethylpentyl)amino]-2-oxoethoxy]-5-methyl-2-thiazolyl]-benzoic acid]			
66%	708 nM	Cc1sc(-c2ccc(C(=O)O)cc2)nc1OCC(=O)NC1CCC(C)CC1 (stereo not drawn) [Compound 58, 4-[5-Methyl-4-[2-[(4-methylcyclohexyl)amino]-2-oxoethoxy]-2-thiazolyl]-benzoic acid]			
35%	776 nM	CCCCCCCc1ccc(-c2ccc(C(=O)NCCc3ccccn3)cc2)cc1 [Compound 59, 4′-Heptyl-biphenyl-4-carboxylic acid (2-pyridin-2-yl-ethyl)-amide]			
51%	832 nM	CCCCCCCCc1ccc(-c2ccc(C(=O)NS(C)(=O)=O)cc2)cc1 [Compound 60, N-(4′-Octyl-biphenyl-4-carbonyl)-methanesulfonamide]			
39%	832 nM	Cc1sc(-c2ccc(C(=O)O)cc2)nc1OCC(=O)NC1CCCC1 [Compound 61, 4-(4-Cyclopentylcarbamoylmethoxy-5-methyl-thiazol-2-yl)-benzoic acid]			
37%	832 nM	CCCCNC(=O)COc1nc(-c2ccc(C(=O)O)cc2)sc1C [Compound 62, 4-(4-Butylcarbamoylmethoxy-5-methyl-thiazol-2-yl)-benzoic acid]			
36%	891 nM	CCCCCCc1ccc(-c2ccc(C(=O)Nc3ccc(C)cn3)cc2)cc1 [Compound 63, 4′-Hexyl-biphenyl-4-carboxylic acid (5-methyl-pyridin-2-yl)-amide]			
		CCCCCCCCc1ccc(-c2ccc(C(=O)OCCc3ccccn3)cc2)cc1 [Compound 68]			induce neuronal differentiation
		Imidazol-1-yl-(4-octyl-biphenyl-4-yl)-methanone [Compound 8]	7.66	79%	

Compound	Emax [1]	EC50 [1]	pEC50 [1]	% Eff. [1]	neuronal differentiation [2]
CCCCCCCCc1ccc(-c2ccc(C(=O)O)cc2)cc1 [Compound 53, 4′-Octyl[1,1′-biphenyl]-4-carboxylic acid]		513 nM		99%	
